Measured values published in the NIST ThermoML archive (doi:10.1021/je049816w).
Numbers after ± are expanded uncertainties.

Settings: Liquid, Ebulliometric method (Recirculating still)

CCOC(C)OCC [1,1-diethoxyethane]
Settings	vapor or sublimation pressure [kPa]
328.35 K	19 ± 0.2
341.62 K	32.1 ± 0.2
345.13 K	36.7 ± 0.2
348.33 K	41.1 ± 0.2
353.38 K	49.2 ± 0.2
357.95 K	57.9 ± 0.3
361.96 K	66.1 ± 0.3
364.68 K	72.3 ± 0.3
366.99 K	77.9 ± 0.3
369.09 K	83.1 ± 0.3
371.7 K	90.1 ± 0.3
373.41 K	94.8 ± 0.3
375.27 K	100 ± 0.3
